Experimental data taken from patent US20230041563A1, “N-(1,3,4-OXADIAZOL-2-YL)ARYLCARBOXAMIDES OR SALTS THEREOF, PREPARATION METHODS, HERBICIDAL COMPOSITIONS AND USES THEREOF” (priority 2018, published 2023).

Legend:
Test in all cases: Weeding effect in post-emergence stage (greenhouse pot spray)
Assay type in all cases: in vivo
Abutilon theophrasti = conditions: Table 2, dose 500 g a.i./ha
Method in brief: (§1)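 Read-out: fresh-weight growth control rate scored 3 weeks after spraying, mean of three replicates. Plants treated at 2-3 leaf stage by spray tower, doses 500-15 g a.i./ha (500, 250, 125, 60, 15).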

Digitaria sanguinalis = conditions: for Digitaria sanguinalis (activity level): Table 2, dose 500 g a.i./ha
Method in brief: as §1

Echinochloa crusgalli = conditions: for Echinochloa crusgah (activity level): Table 2, dose 500 g a.i./ha
Method in brief: as §1

Setaria viridis = conditions: Table 3, dose 250 g a.i./ha
Method in brief: as §1

Amaranthus retroflexus = conditions: Table 2, dose 500 g a.i./ha
From the text: (§2) The activity level criteria for plant damage (i.e., growth control rate) are as follows:
(§3) The above growth control rates are fresh weight control rates.
(§4) Experiment on weeding effect in post-emergence stage: monocotyledonous and dicotyledonous weed seeds (Descurainia sophia, Capsella bursa-pastoris, Abutilon theophrasti, Galium aparine, Stellaria media, Lithospermum arvense, rorippa indica, Alopecurus aequalis, Beckmannia syzigachne, Sclerochloa dura, Phleum paniculatum, Bromus japonicus, Aegilops tauschii, Phalaris arundinacea, Amaranthus retroflexus, Chenopodiaceae, Commelina communis, Sonchus arvensis, convolvulus arvensis, Cirsium setosum, Solanum nigrum, Acalypha australis, Digitaria sanguinalis, Echinochloa crusgalli, Setaria viridis, Setaria glauca, Leptochloa chinensis, Monochoria vaginalis, Sagittaria trifolia, Scirpus juncoides, Cyperus rotundus, Cyperus iria, Cyperus difformis, Fimbristylis, Portulaca oleracea, Xanthium sibiricum, Pharbitis nil) and major crop seeds (wheat, corn, rice, soybean, cotton, oilseed rape, millet, sorghum, potato, sesame, ricinus) were placed in plastic pots filled with soil, then covered with 0.5-2 cm of soil, allowed to grow in a good greenhouse environment. After 2 weeks of sowing, the test plants were treated in the 2 to 3 leaf stage. The tested compounds of the present invention were respectively dissolved in acetone, then added with Tween 80 and 1.5 liter/ha of emulsifiable concentrate of methyl oleate as synergist, diluted with a certain amount of water to obtain a solution with a certain concentration, and sprayed with a spray tower onto the plants. After the application, the plants were cultured for 3 weeks in the greenhouse, and then the experimental results of the weeding were counted. The doses of the used compounds were 500, 250, 125, 60, 15 g a.i./ha, and the averages were obtained by repeating for three times.

Stellaria media = conditions: Table 2, dose 500 g a.i./ha
From the text: as §2, §3, §4

| SMILES | Abutilion theophrasti (activity level) (Abutilon theophrasti) | Digitaria sanguinalis (activity level) (Digitaria sanguinalis) | Digitaria sanguinahs (activity level) (Digitaria sanguinalis; Table 3, dose 250 g a.i./ha) | Echinochloa crusgah (activity level) (Echinochloa crusgalli) | Echinochloa crusgali (activity level) (Echinochloa crusgalli; Table 3, dose 250 g a.i./ha) | Setaria viridis (activity level) (Setaria viridis) | Amaranthus retroflexus (activity level) (Amaranthus retroflexus) | Stellaria media (activity level) (Stellaria media) |
| --- | --- | --- | --- | --- | --- | --- | --- | --- |
| CCSc1c(C(F)(F)F)ccc(C(=O)Nc2nnco2)c1F [Compound 3-4] | 5 (Level 5: growth control rate is above 85%) | 5 (Level 5: growth control rate is above 85%) | 5 (Level 5: growth control rate is above 85%) | 5 (Level 5: growth control rate is above 85%) | 5 (Level 5: growth control rate is above 85%) | 5 (Level 5: growth control rate is above 85%) | 5 (Level 5: growth control rate is above 85%) | 5 (Level 5: growth control rate is above 85%) |
| CC[S+]([O-])c1c(C(F)(F)F)ccc(C(=O)Nc2nnco2)c1F (stereo not shown) [Compound 3-5] | 5 (Level 5: growth control rate is above 85%) | 5 (Level 5: growth control rate is above 85%) |  | 5 (Level 5: growth control rate is above 85%) |  |  | 5 (Level 5: growth control rate is above 85%) | 5 (Level 5: growth control rate is above 85%) |
| CCC[S+]([O-])c1c(C(F)(F)F)ccc(C(=O)Nc2nnco2)c1F (stereo not shown) [Compound 3-8] | 5 (Level 5: growth control rate is above 85%) | 5 (Level 5: growth control rate is above 85%) |  | 5 (Level 5: growth control rate is above 85%) |  |  | 5 (Level 5: growth control rate is above 85%) | 5 (Level 5: growth control rate is above 85%) |
| CC(C)[S+]([O-])c1c(C(F)(F)F)ccc(C(=O)Nc2nnco2)c1F (stereo not shown) [Compound 3-11] | 5 (Level 5: growth control rate is above 85%) | 5 (Level 5: growth control rate is above 85%) |  | 5 (Level 5: growth control rate is above 85%) |  |  | 5 (Level 5: growth control rate is above 85%) | 5 (Level 5: growth control rate is above 85%) |
| CCCC[S+]([O-])c1c(C(F)(F)F)ccc(C(=O)Nc2nnco2)c1F (stereo not shown) [Compound 3-14] | 5 (Level 5: growth control rate is above 85%) | 5 (Level 5: growth control rate is above 85%) |  | 5 (Level 5: growth control rate is above 85%) |  |  | 5 (Level 5: growth control rate is above 85%) | 5 (Level 5: growth control rate is above 85%) |
| CCC(C)[S+]([O-])c1c(C(F)(F)F)ccc(C(=O)Nc2nnco2)c1F (stereo not shown) [Compound 3-17] | 5 (Level 5: growth control rate is above 85%) | 5 (Level 5: growth control rate is above 85%) |  | 5 (Level 5: growth control rate is above 85%) |  |  | 5 (Level 5: growth control rate is above 85%) | 5 (Level 5: growth control rate is above 85%) |
| O=C(Nc1nnco1)c1ccc(C(F)(F)F)c([S+]([O-])CCC(F)(F)F)c1F (stereo not shown) [Compound 3-52] | 5 (Level 5: growth control rate is above 85%) | 5 (Level 5: growth control rate is above 85%) |  | 5 (Level 5: growth control rate is above 85%) |  |  | 5 (Level 5: growth control rate is above 85%) | 5 (Level 5: growth control rate is above 85%) |
| COCC[S+]([O-])c1c(C(F)(F)F)ccc(C(=O)Nc2nnco2)c1F (stereo not shown) [Compound 3-57] | 5 (Level 5: growth control rate is above 85%) | 5 (Level 5: growth control rate is above 85%) |  | 5 (Level 5: growth control rate is above 85%) |  |  | 5 (Level 5: growth control rate is above 85%) | 5 (Level 5: growth control rate is above 85%) |
